Values quoted from earlier work as cited in US20050049255A1, “Therapeutic combinations” (Pfizer Inc, priority 2003, published 2005).

System: dysmenorrhoea

| Compound | efficacy in the treatment of dysmenorrhoea (given intravenously, pilot study) | intensity of pain in women with dysmenorrhoea (double blind, randomised placebo controlled cross over trial, oral) |
| --- | --- | --- |
| 1-deamino-2-D-Tyr (Oet)-4-Thr-8-Orn-oxytocin | effective in the treatment of dysmenorrhoea | – |
| COc1ccc(S(=O)(=O)N2c3ccc(Cl)cc3[C@](O)(c3ccccc3Cl)[C@@H]2C(=O)N2CCC[C@H]2C(N)=O)cc1OC [Relcovaptan] | – | dose dependently reduced the intensity of pain |
